Experimental data: US20040171073A1, “Compounds for modulation of cholesterol transport” (Massachusetts Institute of Technology, priority 2002, published 2004)

Biological target: T1, murine SR-BI (Mus musculus, UniProt Q61009)
T1 construct: expressed in transfected cells; host or cells: ldlA-7 (LDL receptor deficient Chinese hamster ovary cells)
T1 sequence (Q61009 1-509): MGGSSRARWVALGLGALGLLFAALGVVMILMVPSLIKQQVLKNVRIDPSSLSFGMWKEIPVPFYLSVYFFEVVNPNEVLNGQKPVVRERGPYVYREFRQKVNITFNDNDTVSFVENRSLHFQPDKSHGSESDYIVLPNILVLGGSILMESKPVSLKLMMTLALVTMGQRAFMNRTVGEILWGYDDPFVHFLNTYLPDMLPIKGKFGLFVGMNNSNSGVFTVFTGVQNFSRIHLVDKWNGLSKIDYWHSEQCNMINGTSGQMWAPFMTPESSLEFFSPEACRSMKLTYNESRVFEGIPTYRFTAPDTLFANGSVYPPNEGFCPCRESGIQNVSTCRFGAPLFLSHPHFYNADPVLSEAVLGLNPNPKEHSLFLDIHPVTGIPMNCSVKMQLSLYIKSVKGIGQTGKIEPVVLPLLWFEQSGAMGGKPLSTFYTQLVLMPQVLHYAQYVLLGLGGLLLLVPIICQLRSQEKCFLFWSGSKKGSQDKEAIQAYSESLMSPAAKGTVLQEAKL
Assay: Uptake of DiI from DiI-HDL by ldlA[mSR-BI] cells (high throughput screen and concentration dependence)
Format: cell-based

[1] = DiI uptake from DiI-HDL, compounds at nominal 10 micromolar, ldlA[mSR-BI] cells

SMILES | ENDOHDL Test 1 | ENDOHDL Test 2 | ENDOHDL Test 1 [1] | ENDOHDL Test 2 [1]
CCCCOCCC1CCC/C1=N\NC(N)=S (stereo not drawn) [MIT 9952-249] | 0.7 | 0.57 | – | –
CCN(CC(O)COc1ccccc1C(C)=O)S(=O)(=O)[O-].[Na+] (stereo not drawn) [MIT 9952-250] | 1.28 | 1.24 | – | –
C=CCN(CC=C)C(=O)Nc1ccccc1 [MIT 9952-251] | 0.52 | 0.57 | – | –
C/C(=N\NC(=O)COc1ccc(I)cc1)c1cccs1 [MIT 9952-254] | 0.69 | 1.01 | – | –
Cl.c1ccc(CCNC2CCCc3c2[nH]c2ccc(C4CCCCC4)cc32)cc1 (stereo not drawn) [MIT 9952-258] | 0.51 | 1.0 | – | –
CC[n+]1c(/C=C/SC)ccc2ccccc21 [MIT 9952-260] | 0.56 | 0.58 | – | –
c1ccc(-c2cc3c(ccc4nonc43)[nH]2)cc1 [MIT 9952-262] | 0.53 | 0.45 | – | –
CC(=O)C1=C(C)NC(=S)NC1c1ccco1 (stereo not drawn) [MIT 9952-264] | 0.45 | 0.56 | – | –
Cc1ccc2[nH]c3c(c2c1)CCCC3NCC12CC3CC(CC(C3)C1)C2 (stereo not drawn) [MIT 9952-265] | 0.26 | 0.89 | – | –
Cc1cccc(/C=N/Nc2nc(C)nc(C)n2)c1 [MIT 9952-270] | 0.66 | 0.66 | – | –
C/C(CS(=O)(=O)c1ccccc1)=N/NC(N)=S [MIT 9952-271] | 0.59 | 0.54 | – | –
COc1ccc(N/N=C2\C(=O)ON=C2c2ccc(OC)cc2)cc1 [MIT 9952-272] | 0.61 | 0.51 | – | –
CC(=O)OCc1c(C)cc(C)c(/C=N/Nc2ccc([N+](=O)[O-])cc2)c1C [MIT 9952-273] | 0.51 | 0.48 | – | –
Cc1cc(C)c(NC(=O)C2CCCN2N)c(C)c1 (stereo not drawn) [MIT 9952-276] | 0.73 | 0.68 | – | –
CCOC1=C(C(C)=O)NC(c2ccc(OC)cc2)C(=S)N1 (stereo not drawn) [MIT 9952-278] | 0.71 | 0.67 | – | –
O=C(N/N=C/c1cc2c(cc1Br)OCO2)c1cccc(Cl)c1 [MIT 9952-281] | – | – | 0.59 | 0.34

SMILES | ENDOHDL Test 1 | ENDOHDL Test 2 | ENDOHDL Test 1 [1] | ENDOHDL Test 2 [1]
Cc1cc(C)c(CO)c(C)c1/C=N/Nc1ccc([N+](=O)[O-])cc1 [MIT 9952-283] | – | – | 0.53 | 0.48
Cc1cc(C)c(/C=N/N=C/c2c(C)cc(C)cc2C)c(C)c1 [MIT 9952-287] | – | – | 1.18 | 1.32
CC(C)=C/C(=N\Nc1ccc([N+](=O)[O-])cc1[N+](=O)[O-])C1CC=CCC1 (stereo not drawn) [MIT 9952-288] | – | – | 0.59 | 0.52
CCSC(=O)C(NC1=C(C)C(=O)N1)c1ccccc1 (stereo not drawn) [MIT 9952-292] | – | – | 0.47 | 0.58
Br.NS(=O)(=O)c1ccc(Nc2nc(-c3ccc(Cl)cc3)cs2)cc1 [MIT 9952-293] | – | – | 0.69 | 0.67
CCOC(=O)C1=C(C)NC(=S)N(C=O)C1c1ccccc1 (stereo not drawn) [MIT 9952-297] | – | – | 0.56 | 0.46
O=C(/C=C/C=C(Cl)Cl)c1ccc2c(c1)OCO2 [MIT 9952-298] | – | – | 1.29 | 1.24
[O-][n+]1onc2c3cc(-c4ccccc4)[nH]c3ccc21 [MIT 9952-304] | – | – | 0.35 | 0.44
C/C(=N\NC(N)=S)c1ccc[nH]1 [MIT 9952-309] | – | – | 0.7 | 0.68
O=C(CSC1=NCCN1)Nc1ccccc1 [MIT 9952-314] | – | – | 0.55 | 0.54
Br.Oc1c(Br)cccc1CN(Cc1cc(Br)cc(Br)c1O)C1CCCCC1 [MIT 9952-316] | – | – | 0.71 | 0.72
NCC[Se][Se]CCN [MIT 9952-318] | – | – | 0.67 | 0.81
O=C(O)c1cc(C(=O)O)nc(C(=O)O)c1 [MIT 9952-319] | – | – | 1.13 | 1.17
CCOc1ccc2nc3cc(/N=N/c4ccc(N)nc4N)ccc3c(N)c2c1 [MIT 9952-320] | – | – | 0.54 | 0.83
Cc1cc(O)nc2cc3oc4ccccc4c3cc12 [MIT 9952-322] | – | – | 0.79 | 0.86

More lines, now with the values ahead:

ENDOHDL Test 1 | ENDOHDL Test 2 | ENDOHDL Test 1 [1] | ENDOHDL Test 2 [1] | SMILES
0.58 | 0.39 | – | – | CN(N)c1nc(-c2ccccc2)cc(-c2ccccc2)n1 [MIT 9952-252]
0.59 | 0.65 | – | – | COc1ccc(C(=O)Nc2ccc(I)cc2)cc1OC [MIT 9952-253]
0.61 | 0.6 | – | – | CCOc1ccc(NC(=O)/C=C/c2cccc([N+](=O)[O-])c2)cc1 [MIT 9952-255]
0.65 | 0.92 | – | – | O=C(Nc1cccc(Cl)c1)N1CCN(c2ccc([N+](=O)[O-])cc2)CC1 [MIT 9952-256]
0.66 | 0.61 | – | – | CCn1c(C)c(-c2ccccc2)c2cc([N+](=O)[O-])ccc21 [MIT 9952-257]
0.59 | 0.55 | – | – | COc1ccc(C(=O)Nc2cccc(C(F)(F)F)c2)cc1OC [MIT 9952-259]
0.62 | 0.66 | – | – | Brc1ccc(-c2cc(-c3ccccc3)nc(N3CCOCC3)n2)cc1 [MIT 9952-261]
0.66 | 0.65 | – | – | O=C(/C=C/c1ccccc1)Nc1cccc(Cl)c1Cl [MIT 9952-263]
0.57 | 1.11 | – | – | CCN1/C(=C/c2sc3ccccc3[n+]2CC)Sc2ccccc21.Cc1ccc(S(=O)(=O)[O-])cc1 [MIT 9952-267]
0.59 | 0.65 | – | – | O=C(Nc1ccc(Cl)c(Cl)c1)c1ccccc1Br [MIT 9952-268]
0.74 | 0.66 | – | – | COc1ccccc1NC(=O)c1ccc(OC)c(OC)c1 [MIT 9952-269]
0.65 | 0.6 | – | – | CC(C)c1ccc(NC(=O)/C=C/c2cccc([N+](=O)[O-])c2)cc1 [MIT 9952-274]
0.66 | 0.65 | – | – | COc1ccc(C(=O)Nc2ccc(C(C)C)cc2)cc1OC [MIT 9952-277]
– | – | 0.64 | 0.63 | Cc1cccc(C(=O)Nc2cccc(Cl)c2)c1 [MIT 9952-279]
– | – | 0.75 | 0.67 | O=C(Nc1ccc2c(c1)OCO2)c1ccc2ccccc2c1 [MIT 9952-280]
– | – | 0.49 | 0.5 | O=[N+]([O-])c1cccc(-c2ccc(C(=S)N3CCCCC3)o2)c1 [MIT 9952-282]

ENDOHDL Test 1 | ENDOHDL Test 2 | ENDOHDL Test 1 [1] | ENDOHDL Test 2 [1] | SMILES
– | – | 0.65 | 0.54 | O=C(Nc1ccc(-c2nc3ccccc3s2)cc1)c1ccc(Cl)cc1Cl [MIT 9952-284]
– | – | 0.57 | 0.53 | COc1cccc(C(=O)N/N=C/c2ccc(Cl)cc2Cl)c1 [MIT 9952-285]
– | – | 0.62 | 0.64 | O=[N+]([O-])c1ccc(-c2sc(/N=C/c3c(O)ccc4ccccc34)nc2-c2ccc(Cl)cc2)cc1 [MIT 9952-286]
– | – | 0.6 | 0.64 | COc1cccc(C(=O)Nc2nc3ccc(Cl)cc3s2)c1 [MIT 9952-289]
– | – | 0.52 | 0.56 | O=C(/C=C/c1cccc([N+](=O)[O-])c1)Nc1cccc(C(F)(F)F)c1 [MIT 9952-290]
– | – | 0.55 | 0.51 | O=C(/C=C/c1cccc([N+](=O)[O-])c1)Nc1cccc(Cl)c1 [MIT 9952-291]
– | – | 0.61 | 0.56 | C=CC/C=C/c1c(NC(=O)c2ccccc2)sc2c1CCCC2 [MIT 9952-294]
– | – | 0.64 | 0.58 | CCN1/C(=C\C(=O)c2ccc(C)cc2)Sc2ccccc21 [MIT 9952-295]
– | – | 0.63 | 0.61 | O=C(Nc1sc2c(c1C(=O)NCCc1ccc(O)cc1)CCCC2)c1ccccc1 [MIT 9952-296]
– | – | 0.67 | 0.6 | Clc1ccc(N2CCC/C2=N\c2c3c(nc4ccccc24)N(c2ccccc2)CC3)cc1Cl [MIT 9952-305]
– | – | 0.51 | 0.53 | CCOC(=O)C1=C(c2ccc(Cl)cc2)C(=O)c2ccccc2C1=O [MIT 9952-315]
– | – | 0.46 | 0.63 | Cc1ccsc1/C=N/NC(=O)c1cccc([N+](=O)[O-])c1 [MIT 9952-323]
– | – | 0.55 | 0.56 | O=C(Nc1ccc(Oc2ccc(Cl)c3cccnc23)c(Cl)c1)c1ccc([N+](=O)[O-])cc1 [MIT 9952-324]
– | – | 0.56 | 0.49 | O=C(NC(NC(=S)Nc1cccc2ccccc12)C(Cl)(Cl)Cl)c1cccc([N+](=O)[O-])c1 (stereo not drawn) [MIT 9952-325]
– | – | 0.55 | 0.53 | NC(=O)N/N=C/c1ccc(-c2ccc([N+](=O)[O-])cc2)o1 [MIT 9952-326]
– | – | 0.4 | 0.45 | O=C(NC(NC(=S)Nc1cccc([N+](=O)[O-])c1)C(Cl)(Cl)Cl)C(c1ccccc1)c1ccccc1 (stereo not drawn) [MIT 9952-327]
